Literature values, collected in US9504677B2, “Substituted N-aryl pyridinones” (Auspex Pharmaceuticals, Inc., priority 2007, dated 2016).

Tests used:
[1] = humans

half-life [1]: very short
SMILES: Cc1ccc(=O)n(-c2ccccc2)c1 [Pirfenidone, 5-methyl-1-phenyl-1H-pyridin-2-one]
DNA synthesis (myometrial cells): inhibits DNA synthesis | efficacy in rodent disease models (rodent disease models): effective | DNA synthesis (leiomyoma cells): inhibits DNA synthesis
